Experimental data: PMC11273930, “Bioactive Bioxanthracene and Cyclodepsipeptides from the Entomopathogenic Fungus Blackwellomyces roseostromatus BCC56290” (Antibiotics, 2024)
Values after ≈ are worked out from the molar mass of the structure shown. Values joined by “and” are separate entries in the source; they are usually repeats but may differ in a detail not shown here. Identical values can stand only once. Like-named read-outs stand apart in the source and are kept apart here. Where a SMILES comes first, the peptide text is derived from it. [ ]: non-standard residue; d: D form. PhLac = O=C(O)[C@@H](O)Cc1ccccc1; NMeA = CN[C@@H](C)C(=O)O

Legend:
[1] = test system: A431 (skin) epidermoid carcinoma cells; assay: Cytotoxicity (MTT) assay; format: cell-based; details: Homo sapiens, A-431, read-out: IC50, Positive Control Epothilone B (nM)
Experimental: (§1) In vitro cytotoxic activity of the isolated compounds was tested by applying the MTT (3-(4,5-dimethylthiayol-2-yl)-2,5-diphenyltetrazolium bromide) assay as previously reported. The mammalian cell lines used in the tests were sourced from DSMZ and included mouse fibroblasts (L929) and endocervical adenocarcinoma (KB3.1), human lung carcinoma (A549), breast adenocarcinoma (MCF-7), human ovarian cancer (SKOV-3), prostate carcinoma (PC-3), and epidermoid carcinoma cells (A431). Epothilone B was used as the positive control.

[2] = test system: PC-3 (prostate) carcinoma; assay: Cytotoxicity (MTT) assay; format: cell-based; details: Homo sapiens, read-out: IC50, Positive Control Epothilone B (nM)
Experimental: as §1

[3] = test system: A549 (lung) human lung carcinoma; assay: Cytotoxicity (MTT) assay; format: cell-based; details: A549, read-out: IC50, Positive Control Epothilone B (nM)
Experimental: as §1

[4] = test system: MCF-7 (breast) adenocarcinoma; assay: Cytotoxicity (MTT) assay; format: cell-based; details: Homo sapiens, MCF7, read-out: IC50, Positive Control Epothilone B (nM)
Experimental: as §1

[5] = test system: Candida albicans (DSM 1665); assay: Antimicrobial assay (MIC); format: cell-based; design: key to MIC (µg/mL): -: no inhibition observed
Experimental: (§2) The antimicrobial activity of the isolated secondary metabolites was determined using our established protocol, against clinically relevant microorganisms obtained from the German Collection of Microorganisms and Cell Cultures (DSMZ, Braunschweig, Germany). These included Staphylococcus aureus (DSM 346), Bacillus subtilis (DSM 10), Acinetobacter baumanii (DSM 30008), Escherichia coli (DSM 1116), Chromobacterium violaceum (DSM 30191), Pseudomonas aeruginosa (PA14), Mycolicibacterium smegmatis (ATCC 700084), Candida albicans (DSM 1665), Mucor hiemalis (DSM 2656), Rhodotorula glutinis (DSM 10134), Schizosaccharomyces pombe (DSM 70572) and Pichia anomala (DSM 6766). Nystatin was used as an antifungal positive control whereas oxytetracycline, ciprofloxacin, gentamicin, and kanamycin were used as positive controls against Gram-positive and Gram-negative bacteria.

[6] = test system: Bacillus subtilis (DSM 10); assay: Antimicrobial assay (MIC); format: cell-based; design: key to MIC (µg/mL): -: no inhibition observed
Experimental: as §2

[7] = test system: Mucor hiemalis (DSM 2656); assay: Antimicrobial assay (MIC); format: cell-based; design: key to MIC (µg/mL): -: no inhibition observed
Experimental: as §2

[8] = test system: Schizosaccharomyces pombe (DSM 70572); assay: Antimicrobial assay (MIC); format: cell-based; design: key to MIC (µg/mL): -: no inhibition observed
Experimental: as §2

[9] = test system: Escherichia coli (DSM 1116); assay: Antimicrobial assay (MIC); format: cell-based; design: key to MIC (µg/mL): -: no inhibition observed
Experimental: as §2

[10] = test system: Rhodotorula glutinis (DSM 10134); assay: Antimicrobial assay (MIC); format: cell-based; design: key to MIC (µg/mL): -: no inhibition observed
Experimental: as §2

[11] = test system: Pichia anomala (DSM 6766); assay: Antimicrobial assay (MIC); format: cell-based; design: key to MIC (µg/mL): -: no inhibition observed
Experimental: as §2

[12] = test system: Chromobacterium violaceum (DSM 30191); assay: Antimicrobial assay (MIC); format: cell-based; design: key to MIC (µg/mL): -: no inhibition observed
Experimental: as §2

[13] = test system: Mycobacterium smegmatis (ATCC 700084); assay: Antimicrobial assay (MIC); format: cell-based; design: key to MIC (µg/mL): -: no inhibition observed
Experimental: as §2

[14] = test system: Staphylococcus aureus (DSM 346); assay: Antimicrobial assay (MIC); format: cell-based; design: key to MIC (µg/mL): -: no inhibition observed
Experimental: as §2

[15] = test system: Pseudomonas aeruginosa (PA14); assay: Antimicrobial assay (MIC); format: cell-based; design: key to MIC (µg/mL): -: no inhibition observed
Experimental: as §2

[16] = test system: L929 (murine) mouse fibroblasts; assay: Cytotoxicity (MTT) assay; format: cell-based
Experimental: as §1, with “(A431).” for “(A431). Epothilone B was used as the positive control.”

Caenorhabditis elegans = assay: Nematicidal activity assay; format: in vivo; details: 18 h
Experimental: The nematicidal activity assay was conducted following a previously described procedure with slight modifications. C. elegans was cultured on nematode growth medium (NGM) containing 3 g NaCl, 20 g agar, 2.5 g peptone, 1 mL 1 M CaCl2, 25 mL of 1 M (pH 6.0) KPO4, 1 mL 1 M MgSO4, and 1 mL cholesterol (5 mg/mL in ethanol) per liter of medium. Plates were coated with Escherichia coli strain OP50, which served as the food source for nematodes. Synchronization of the nematode population was performed using a high egg density plate (~120 h). The plate was rinsed three times with 4 mL of 0.9% NaCl solution and then transferred to a 15 mL falcon tube. The nematode suspension was centrifuged at 1000 rpm for 3 min, and the supernatant was discarded. This procedure was repeated until a clear nematode suspension was obtained. After the last washing step, 2 mL of the suspension was mixed with 5 mL of bleaching solution (1 mL sodium hypochlorite solution, 0.5 mL 5 M NaOH, and 3.5 mL Milli-Q water). The solution was gently shaken for approximately 5 min to break down the nematode tissue, and monitored under the microscope. The reaction was stopped by adding 7 mL 0.9% NaCl solution when traces of adults were still visible. Subsequently, the suspension was centrifuged at 2500 rpm for 2 min and washed 3 times as previously described. After the final washing step, the supernatant was removed, and the volume was adjusted to 7 mL with 0.9% NaCl solution. The nematode egg suspension was incubated at 23 °C on a rotary shaker at 80 rpm for 18 h. The hatched nematodes were transferred to a fresh NGM plate supplemented with E.coli OP50. After 50–70 h, the J4 and adult C. elegans were washed from the plate as mentioned above. The nematode concentration was determined and diluted to approximately 1000 nematodes/mL.
Pure compounds were tested at concentrations of 10, 50, and 100 μg/mL in 48-well microtiter plates. The compounds, dissolved in MeOH, were added to the well plate and subsequently dried under nitrogen. After complete evaporation of the solvent, 300 μL of the nematode suspension (1000 nematodes/mL) was added to the compounds. Each treatment was replicated three times. MeOH was used as the negative control while 1 μg/mL Ivermectin served as the positive control. Nematodes were monitored 15 min after inoculation, and the plates were incubated at 24 °C and 150 rpm for 18 h. After incubation, both alive and dead nematodes were counted in three replicates under a stereomicroscope, and the mortality rate was calculated. Erect and non-moving nematodes were considered dead. […] The observed percentage of dead nematodes was corrected by considering the natural mortality observed in the negative control, using the Schneider-Orelli formula [30].

[17] = test system: Acinetobacter baumanii (DSM 30008); assay: Antimicrobial assay (MIC); format: cell-based; design: key: -: no inhibition observed
Experimental: as §2

[18] = test system: KB3.1 (cervix) endocervical adenocarcinoma; format: cell-based, human
Experimental: as §1, with “(A431).” for “(A431). Epothilone B was used as the positive control.”

[19] = 10 µg/mL, J4 and adult C. elegans, 24 °C, corrected by Schneider-Orelli formula vs methanol control, mean ± SD (n ≥ 3), < 0: less active than negative control
[20] = 50 µg/mL, J4 and adult C. elegans, 24 °C, corrected by Schneider-Orelli formula vs methanol control, mean ± SD (n ≥ 3)
[21] = 100 µg/mL, J4 and adult C. elegans, 24 °C, corrected by Schneider-Orelli formula vs methanol control, mean ± SD (n ≥ 3)
[22] = MTT assay, KB3.1 (cervix), read-out: IC50

Molecule	MIC (µg/mL) [5]	MIC (µg/mL) [6]	MIC (µg/mL) [7]	MIC (µg/mL) [8]	MIC (µg/mL) [9]	MIC (µg/mL) [10]	MIC (µg/mL) [11]	MIC (µg/mL) [12]	MIC (µg/mL) [13]	MIC (µg/mL) [14]	MIC (µg/mL) [15]	IC50 [16] [µM]	Corrected mortality rate (%) (Caenorhabditis elegans; [19])	Corrected mortality rate (%) (Caenorhabditis elegans; [20])	Corrected mortality rate (%) (Caenorhabditis elegans; [21])	MIC (µg/mL) [17]	IC50 [18, 22] [µM]	other results
C/C(=C\c1csc(C)n1)[C@@H]1C[C@@H]2O[C@]2(C)CCC[C@H](C)[C@H](O)[C@@H](C)C(=O)C(C)(C)[C@@H](O)CC(=O)O1 [Epothilone B]																		IC50 [1]: 0.06 nM; IC50 [2]: 0.09 nM; IC50 [3]: 0.05 nM; IC50 [4]: 0.07 nM
CC(C)C[C@@H]1NC(=O)[C@H](Cc2ccccc2)OC(=O)[C@H](C)N(C)C(=O)[C@H](CC(C)C)NC(=O)[C@H](Cc2ccccc2)NC(=O)[C@H](C)N(C)C1=O [Compound 4, Cardinalisamide D] (cyclo([PhLac]L[NMeA]FL[NMeA]))	-	-	-	-	-	-	-	-	-	-	-	> 35	13.7 ± 5.2	14.2 ± 4.9	23.4 ± 7.4%	-		IC50 [18]: 36.2 µM
NC[C@H]1O[C@H](O[C@H]2[C@H](O)[C@@H](O[C@H]3O[C@H](CO)[C@@H](O)[C@H](N)[C@H]3O)[C@H](N)C[C@@H]2N)[C@H](O)[C@@H](O)[C@@H]1O [Kanamycin, reference compound]																		MIC [13]: 0.1 µg/mL (≈ 0.206 µM)
CN(C)[C@@H]1C(O)=C(C(N)=O)C(=O)[C@@]2(O)C(O)=C3C(=O)c4c(O)cccc4[C@@](C)(O)[C@H]3[C@H](O)[C@@H]12 [Oxytetracyclin, reference compound]																		MIC ([6]; DSM10): 16.6 µg/mL (≈ 36.1 µM)
Ivermectin [reference compound]																		Corrected mortality rate (%) (Caenorhabditis elegans; 1 µg/mL, positive control, C. elegans, corrected mortality, mean ± SD): 87.4 ± 6.5%
CNC(C)C1CCC(N)C(OC2C(N)CC(N)C(OC3OCC(C)(O)C(NC)C3O)C2O)O1 (stereo not drawn) [Gentamycin, reference compound]																		MIC ([9]; DSM1116): 0.83 µg/mL (≈ 1.74 µM); MIC ([12]; DSM30191): 1.7 µg/mL (≈ 3.56 µM); MIC ([14]; DSM346): 0.42 µg/mL (≈ 0.879 µM); MIC [15]: 0.42 µg/mL (≈ 0.879 µM)
ES-242-9 [Compound 1]	-	-	-	-	-	-	-	-	-	-	-	> 35	33.4 ± 5.3	31.7 ± 7.1	51.1 ± 5.3% and 51.1%	-	29.2	
3S,4S-HMDA-L-Trp^1-L-Trp^2-L-Phe (lariat or depsi) [Compound 3, Beauveriolide U, previously undescribed cyclic tetradepsipeptide, HMDA-Trp-Trp-Phe, C42H49N5O5]	-	-	-	-	-	-	-	-	-	-	-	> 35	< 0	6.0 ± 1.5	32.1 ± 7.0%	-	> 35	
HMDA-Trp-Ala-Phe (lariat or depsi) [Compound 2, Beauveriolide T]	-	-	-	-	-	-	-	-	-	-	-	> 35	11.6 ± 6.4	33.1 ± 6.7	36.1 ± 7.3%	-	> 35	
C[C@@H]1[C@H](O)[C@@H](C)/C=C/C=C/CC/C=C/C=C/C=C/C=C/C(O[C@H]2O[C@H](C)[C@@H](O)[C@H](N)[C@@H]2O)CC2O[C@](O)(CC(O)C(O)CCC(O)CC(O)CC(O)CC(=O)O[C@H]1C)CC(O)C2C(=O)O (stereo partly drawn) [Nystatin, reference compound]																		MIC [5]: 2.1 µg/mL (≈ 2.27 µM); MIC [7]: 4.2 µg/mL (≈ 4.54 µM); MIC [8]: 2.1 µg/mL (≈ 2.27 µM); MIC [10]: 1.0 µg/mL (≈ 1.08 µM); MIC [11]: 4.2 µg/mL (≈ 4.54 µM)
